Measurements reported in patent US8008258B2, “Cop 1 for treatment of inflammatory bowel diseases” (Yeda Research and Development Co. Ltd., priority 2003, dated 2011).
Marks after values point to notes of the source that are not given here.

Test system: TNBS-induced colitis
Test: TNBS-induced colitis in BALB/c mice, oral GA treatment
Type: in vivo
Set-up: key to Macroscopic scoring of colon damage: Ulceration (max 10): 0 = completely normal, 10 = most severe ulceration; key to Macroscopic scoring of colon damage: Adhesion (max 2): adhesions score 0 to 2; key to Macroscopic scoring of colon damage: Diarrhea (max 1): diarrhea score 0 to 1; key to Macroscopic scoring of colon damage: Thickness (max 1): thickness score 0 to 1
Description: Induction of cholitis in mice. TNBS-colitis was induced by rectal instillation of 2,4,6-trinitrobenzene sulfonic acid 5% (w/v), mixed with an equal volume of ethanol, into anesthetized mice (100 μl/mouse). Each treatment group included 6-12 mice. Mice that died before day 4 were considered as treatment casualties and were not taken into consideration.
Assessment of colitis. Weight changes and survival were monitored daily. Five to eight days following TNBS instillation, mice were sacrificed and macroscopic as well as microscopic colonic damage was evaluated.
Macroscopic colonic scoring. Gross colonic damage was graded according to Reuter et al. (1996), using the combined values of the four standard macroscopic parameters: degree of colonic ulcerations (scale from 0—completely normal, to 10—most severe); intestinal and peritoneal adhesions (0 to 2); diarrhea (0 to 1); and thickness (0 to 1). The total score is the arithmetic sum of the four scores. The evaluation was performed in a blind procedure.
Microscopic scoring. Proximal, medial, and distal portions of colon were fixed in 10% phosphate-buffered formalin. Paraffin-embedded sections were stained with hematoxylin and eosin. The degree of histological damage and inflammation was graded according to Elson et al. (1996) using the combined values of the four microscopic parameters: extent (scale from 0—completely normal, to 2—involving more than one segment); inflammation (0—none to 3—severe); damage (0 to 3—severe transmural); and regeneration (0—complete re-eptihelization to 3—none). The total score is the arithmetic sum of the four scores. The evaluation was performed in a blind procedure.
Oral treatment—250 μg/day in PBS, fed by gastric intubation with an 18-gauge stainless steel feeding needle. Unless otherwise stated, feedings were performed on days-7, -5, -3, -1, 0, 2, 4 and 6, relative to the day of TNBS instillation.
Colitis was induced by TNBS in 50% ethanol. […] Colonic scoring was performed 7 or 8 days after disease induction. Mice that died during the first 2 days (usually around 20% in all groups) were considered as treatment casualties and thus are not presented; each group contained 4-7 mice that survived after day 2.

[1] = Average of three experiments, GA oral 250 μg/mouse every other day from day −7, scoring 7 or 8 days after induction
[2] = Exp. No. 1, GA oral 250 μg/mouse every other day from day −7, scoring 7 or 8 days after induction
[3] = Exp. No. 2, GA oral 250 μg/mouse every other day from day −7, scoring 7 or 8 days after induction
[4] = Exp. No. 3, GA oral 250 μg/mouse every other day from day −7, scoring 7 or 8 days after induction
[5] = GA no colitis (GA oral without TNBS induction)
[6] = Timing study, GA oral 250 μg/mouse every other day starting day 0, 8 feedings
[7] = Timing study, GA oral 250 μg/mouse every other day starting day +2, 6 feedings
[8] = Timing study, GA oral 250 μg/mouse every other day starting day −3, 8 feedings
[9] = Timing study, GA oral 250 μg/mouse every other day starting day −7, 8 feedings

Substance: glatiramer acetate [GA]
- Macroscopic scoring of colon damage: Adhesion (max 2) [1]: 0.4
- Macroscopic scoring of colon damage: Diarrhea (max 1) [1]: 0.2
- Macroscopic scoring of colon damage: Thickness (max 1) [1]: 0.0
- Macroscopic scoring of colon damage: Ulceration (max 10) [1]: 2.1
- Macroscopic scoring of colon damage: Adhesion (max 2) [2]: 0.6
- Macroscopic scoring of colon damage: Diarrhea (max 1) [2]: 0.0
- Macroscopic scoring of colon damage: Thickness (max 1) [2]: 0.0
- Macroscopic scoring of colon damage: Total Score (max 14) [2]: 1.6*
- Macroscopic scoring of colon damage: Ulceration (max 10) [2]: 1.0
- Macroscopic scoring of colon damage: Adhesion (max 2) [3]: 0.5
- Macroscopic scoring of colon damage: Diarrhea (max 1) [3]: 0.5
- Macroscopic scoring of colon damage: Thickness (max 1) [3]: 0.0
- Macroscopic scoring of colon damage: Total Score (max 14) [3]: 4.4*
- Macroscopic scoring of colon damage: Ulceration (max 10) [3]: 3.4
- Macroscopic scoring of colon damage: Adhesion (max 2) [4]: 0.1
- Macroscopic scoring of colon damage: Diarrhea (max 1) [4]: 0.0
- Macroscopic scoring of colon damage: Thickness (max 1) [4]: 0.0
- Macroscopic scoring of colon damage: Total Score (max 14) [4]: 2.1*
- Macroscopic scoring of colon damage: Ulceration (max 10) [4]: 2.0
- Macroscopic scoring of colon damage: Adhesion (max 2) [5]: 0.0
- Macroscopic scoring of colon damage: Diarrhea (max 1) [5]: 0.0
- Macroscopic scoring of colon damage: Thickness (max 1) [5]: 0.0
- Macroscopic scoring of colon damage: Total Score (max 14) [5]: 0.0
- Macroscopic scoring of colon damage: Ulceration (max 10) [5]: 0.0
- Reduction in disease severity (total macroscopic score) versus control (GA oral feedings started seven days before TNBS, total of 8 feedings every other day): 5.2 fold
- Reduction in disease severity (total macroscopic score) versus control (GA oral treatment started on the day of TNBS inoculation, or two days after disease induction): 2.2 fold
- Reduction in disease severity (total macroscopic score) versus control (GA oral treatment started three days before induction): 2.75 fold
- Mortality due to the disease process (GA oral, 8 days after induction): 20%
- Reduction of average histological score versus colitis group (GA oral, day 7, p=0.007): 2.8 folds
- Average histological score (from a maximal score of 12.0) (GA oral, mice surviving till day 7): 2.8
- Histological or macroscopic damage (GA treatment without TNBS induction): did not result in any histological or macroscopic damage
- Macroscopic scoring of colon damage: Adhesion (max 2) [6]: 0.7
- Macroscopic scoring of colon damage: Diarrhea (max 1) [6]: 0.0
- Macroscopic scoring of colon damage: Thickness (max 1) [6]: 0.0
- Macroscopic scoring of colon damage: Total Score (max 14) [6]: 5.0*
- Macroscopic scoring of colon damage: Ulceration (max 10) [6]: 4.3
- Macroscopic scoring of colon damage: Adhesion (max 2) [7]: 0.3
- Macroscopic scoring of colon damage: Diarrhea (max 1) [7]: 0.0
- Macroscopic scoring of colon damage: Thickness (max 1) [7]: 0.0
- Macroscopic scoring of colon damage: Total Score (max 14) [7]: 5.0*
- Macroscopic scoring of colon damage: Ulceration (max 10) [7]: 4.7
- Macroscopic scoring of colon damage: Adhesion (max 2) [8]: 0.5
- Macroscopic scoring of colon damage: Diarrhea (max 1) [8]: 0.0
- Macroscopic scoring of colon damage: Thickness (max 1) [8]: 0.0
- Macroscopic scoring of colon damage: Total Score (max 14) [8]: 4.0*
- Macroscopic scoring of colon damage: Ulceration (max 10) [8]: 3.5
- Macroscopic scoring of colon damage: Adhesion (max 2) [9]: 0.1
- Macroscopic scoring of colon damage: Diarrhea (max 1) [9]: 0.0
- Macroscopic scoring of colon damage: Thickness (max 1) [9]: 0.0
- Macroscopic scoring of colon damage: Total Score (max 14) [9]: 2.1*
- Macroscopic scoring of colon damage: Ulceration (max 10) [9]: 2.0
- Decrease of total macroscopic damage versus control (average of three experiments, GA oral 250 μg/mouse, alternate days from day −7, 8 feedings): 3.8 fold
- Macroscopic grade of representative colons (FIG. 1A) (colons from two TNBS-induced mice treated orally with GA (0.25 mg/mouse, 8 feedings), 7 days after TNBS, focal hyperemia only): 1
- Maximum weight loss (of body weight) (mice fed with GA, by day 3 after TNBS inoculation): 5%
- Complete restoration of original weight (mice fed with GA, day after TNBS inoculation): ≤ 5 days
